Data published in US20020059032A1, “Rational selection of putative peptides from identified nucleotide or peptide sequences” (priority 1999, published 2002).
Where a SMILES comes first, the peptide text is derived from it.

target: guinea pig brain membranes; experiment: Binding test with guinea pig brain membranes; conditions: tested on guinea pig brain membranes; read-out: IC50 = 100 μM

Molecule | IC50 [nM]
CC[C@H](C)[C@H](NC(=O)[C@H](CCC(=O)O)NC(=O)[C@H](C)NC(=O)[C@@H](N)C(C)C)C(=O)N[C@@H](CCC(N)=O)C(=O)NCC(=O)N[C@@H](Cc1c[nH]cn1)C(=O)N[C@@H](C)C(=O)NCC(N)=O [Example 32, H-VAEIQGHAG-NH2] (H-VAEIQGHAG-NH2) | 200
CSCC[C@H](NC(=O)[C@H](CCC(N)=O)NC(=O)[C@H](CCC(=O)O)NC(=O)[C@H](CCSC)NC(=O)[C@H](CC(C)C)NC(=O)[C@@H]1CCCN1C(=O)CNC(=O)[C@@H]1CCCN1C(=O)[C@@H]1CCCN1C(=O)CNC(=O)CNC(=O)[C@@H]1CCCN1C(=O)CNC(=O)CN)C(=O)NCC(N)=O [Example 36, H-GGPGGPPGPLMEQMG-NH2] (H-GGPGGPPGPLMEQMG-NH2) | 2900
CC[C@H](C)[C@H](NC(=O)[C@H](CCCCN)NC(=O)[C@H](Cc1ccccc1)NC(=O)[C@H](CCC(N)=O)NC(=O)[C@H](C)NC(=O)[C@H](Cc1c[nH]c2ccccc12)NC(=O)[C@@H](N)CCC(N)=O)C(=O)N[C@@H](CCC(N)=O)C(=O)N[C@@H](Cc1c[nH]c2ccccc12)C(=O)N[C@@H](CC(N)=O)C(=O)N[C@@H](CCC(N)=O)C(=O)N[C@@H](CCCNC(=N)N)C(=O)N[C@@H](Cc1c[nH]c2ccccc12)C(N)=O [Example 61, H-QWAQFKIQWNQRW-NH2] (H-QWAQFKIQWNQRW-NH2) | 1110
CC[C@H](C)[C@H](NC(=O)[C@@H]1CCCN1C(=O)CNC(=O)CN)C(=O)N[C@@H](CO)C(=O)N[C@@H](Cc1ccccc1)C(=O)N[C@@H](CO)C(=O)N[C@@H](CO)C(=O)N[C@@H](CO)C(=O)N[C@@H](CCCNC(=N)N)C(=O)N[C@@H](CO)C(N)=O [Example 25, H-GGPISFSSSRS-NH2] (H-GGPISFSSSRS-NH2) | 310
CC(C)C[C@H](NC(=O)[C@H](CO)NC(=O)[C@@H]1CCCN1C(=O)[C@@H](N)CC(=O)O)C(=O)N1CCC[C@H]1C(=O)N[C@H](C(=O)N[C@@H](C)C(=O)N[C@@H](CO)C(=O)N[C@@H](CO)C(=O)N[C@@H](CO)C(=O)N[C@@H](CO)C(=O)N[C@@H](CO)C(=O)N[C@@H](CO)C(=O)N[C@@H](CO)C(=O)N[C@@H](CCCCN)C(=O)N[C@@H](CCCNC(=N)N)C(N)=O)C(C)C [Example 11, H-DPSLPVASSSSSSSKR-NH2] (H-DPSLPVASSSSSSSKR-NH2) | 270
CC(C)[C@H](NC(=O)[C@H](C)NC(=O)[C@@H](NC(=O)[C@@H](NC(=O)[C@H](C)NC(=O)[C@@H](NC(=O)[C@@H](N)CCC(N)=O)[C@@H](C)O)C(C)C)[C@@H](C)O)C(=O)N[C@@H](CCC(=O)O)C(=O)N[C@@H](CCCCN)C(=O)N1CCC[C@H]1C(=O)N[C@@H](C)C(=O)N[C@@H](CC(=O)O)C(=O)N[C@@H](CCCCN)C(N)=O [Example 57, H-QTAVTAVEKPADK-NH2] (H-QTAVTAVEKPADK-NH2) | 60
CC(C)[C@H](NC(=O)[C@H](C)NC(=O)[C@@H](NC(=O)[C@H](Cc1c[nH]c2ccccc12)NC(=O)[C@@H]1CCCN1)[C@@H](C)O)C(=O)N[C@@H](CC(=O)O)C(=O)N[C@H](C(=O)N[C@@H](CO)C(=O)N[C@H](C(=O)N[C@@H](CC(=O)O)C(N)=O)C(C)C)[C@@H](C)O [Example 51, H-PWTAVDTSVD-NH2] (H-PWTAVDTSVD-NH2) | 140
CC(C)C[C@H](NC(=O)[C@H](C)NC(=O)CNC(=O)[C@@H](NC(=O)[C@@H](N)CCCNC(=N)N)[C@@H](C)O)C(=O)N[C@H](C(=O)N[C@@H](CC(C)C)C(=O)N[C@@H](CO)C(=O)N[C@@H](CCCNC(=N)N)C(=O)NCC(N)=O)C(C)C [Example 23, H-RTGALVLSRG-NH2] (H-RTGALVLSRG-NH2) | 1300
CSCC[C@H](N)C(=O)NCC(=O)N[C@@H](CCCCN)C(=O)N[C@@H](Cc1c[nH]c2ccccc12)C(=O)N[C@@H](Cc1c[nH]cn1)C(=O)N[C@H](C(=O)NCC(N)=O)C(C)C [Example 67, H-MGKWHVG-NH2] (H-MGKWHVG-NH2) | 160
CC[C@H](C)[C@H](NC(=O)[C@H](C)NC(=O)[C@@H](NC(=O)[C@H](CCC(=O)O)NC(=O)[C@H](CCC(=O)O)NC(=O)[C@@H](NC(=O)CNC(=O)[C@H](Cc1ccccc1)NC(=O)[C@@H](NC(=O)[C@H](CC(=O)O)NC(=O)[C@@H](N)[C@@H](C)O)[C@@H](C)CC)C(C)C)[C@@H](C)O)C(N)=O [Example 56, H-TDIFGVEETAI-NH2] (H-TDIFGVEETAI-NH2) | 730
CSCC[C@H](NC(=O)CNC(=O)[C@H](Cc1ccccc1)NC(=O)[C@H](CC(=O)O)NC(=O)[C@H](CCCNC(=N)N)NC(=O)[C@H](CCSC)NC(=O)[C@@H](NC(=O)[C@@H](NC(=O)[C@@H](NC(=O)[C@H](CO)NC(=O)[C@@H](N)Cc1ccccc1)C(C)C)[C@@H](C)O)[C@@H](C)O)C(N)=O [Example 16, H-FSVTTMRDFGM-NH2] (H-FSVTTMRDFGM-NH2) | 80
CC[C@H](C)[C@H](NC(=O)[C@H](CCCNC(=N)N)NC(=O)[C@H](CC(C)C)NC(=O)[C@H](CC(C)C)NC(=O)CNC(=O)[C@@H](NC(=O)[C@@H](N)Cc1c[nH]cn1)C(C)C)C(=O)N[C@@H](CCCCN)C(N)=O [Example 69, H-HVGLLRIK-NH2] (H-HVGLLRIK-NH2) | 37

system: HeLa cells; experiment: Binding test with HeLa cells; conditions: not given
Method: Studies of the Bonding of Labelled Agonists on the HeLa Cell Line
The cells are cultured in a DMEM medium supplemented with 10% foetal calf serum, 0.5% of antibiotics (penicillin/streptomycin) and 0.5% of glutamine.
24 to 48 hours before experimentation, the cells are replicated in 24-well plates with approximately 100,000 cells per well and per ml.
The bonding studies are carried out with a BindH buffer
For the experiment, the medium is removed and the cells washed twice with 1 ml of buffer. The reaction medium (500 μl) containing the labelled agonist is added into each well in the presence or absence of the cold homologous agonist and the plates are incubated for one hour at 37° C.
The reaction is stopped by removal of the reaction volume and the wells are rinsed twice with 1 ml of BindH with 20% BSA.
The cells are lysed with 500 μl of 1N soda for 20 minutes at ambient temperature and the radioactivity associated with the lysate is evaluated using a gamma counter.

Molecule | IC50 [nM]
YFKIDNVKKARVQWA [Example 3, H-YFKIDNVKKARVQWA-NH2] | 50000

system: Jurkat T cells; experiment: Binding test with Jurkat T cells; parameters: species or system human; conditions: not given
Method: Bonding of Radiolabelled Agonists to Jurkat T cells
Culture Conditions of the Cells of the Jurkat T Human Lymphocytic Line
The Jurkat cells are cultured in an RPMI 1640 medium supplemented with foetal calf serum (10% volume/volume) and antibiotics (50 U/ml of penicillin and 50 μg/ml of streptomycin) serum in a humid incubator at 37° C. under an atmosphere of 5% CO2 in air.
The cells are obtained by centrifugation (514 g, 5 minutes), then are washed twice in a standard medium containing: 98 mM of NaCl; 6 mM of KCl; 2.5 mM of NaH2PO4; 1.5 mM of CaCl2, 1 mM of MgCl2, 5 mM of Na-pyruvate; 5 mM of Na-fumarate; 5 mM of Na-glutamate; 2 mM of glutamine; 11.5 mM of glucose; 24.5 mM of Hepes (N-[2-hydroxyethyl]piperazine-N′-[2-ethane sulfonic acid]); 0.5 g/l of bacitracin; 0.1 g/l of soya bean trypsin inhibitor, pH 7.4
Experiments with agonist bonds labelled with iodine 125 (about 50 picomolars) are carried out at 37° C. under agitation for 45-60 minutes in a final volume of 0.5 ml of standard medium containing 2×10^6 cells (4×10^6 cells/ml) and in the presence or absence of competitors. The non-specific bond is evaluated in the presence of a micromolar concentration of cold homologous peptide.

Molecule | Results, binding test with Jurkat T cells (positive/negative)
YERNRQAAAANPENSRGK [Example 6, H-YERNRQAAAANPENSRGK-NH2] | negative
ELGRGPGPPLPERGA [Example 5, H-ELGRGPGPPLPERGA-NH2] | negative
GQDSIEPVPGQK [Example 1, H-GQDSIEPVPGQK-NH2] | negative

system: different rat organ membranes; experiment: Binding test with different rat organ membranes; conditions: not given
Method: (§1) The membranes are placed in a buffer (50 mM of Tris-HCl, 5 mM of MgCl2 and 0.1 g/l of bacitracin) at the desired protein concentration (iodized CCK bond, 0.1 mg of protein/ml; iodized gastrin bond: 0.5 mg of proteins/ml). They are then incubated in the presence of a labelled ligand in a total volume of 500 μl (about 10 pM for the iodized CCK8, 20 pM for the iodized gastrin13), 50-80 minutes at 25° C., and in the presence or absence of cold agonists. The reaction is stopped with 3 ml of additional BSA buffer (20 g/l) at 4° C., the tubes are centrifuged at 10,000×g, the supernatant is drawn off and the radioactivity associated with the precipitate is evaluated with a γ counter.
(§2) Membrane Preparations of Different Rat Tissues and Organs
(§3) 1) The rats are sacrificed by rupturing their cervical vertebrae, and the different tissues are removed and washed several times in a large volume of NaCl at 9 per thousand.
(§4) The following steps are carried at 4° C.
(§5) 2) The tissues and organs are transferred, still separately, in a sucrose buffer containing:
(§6) They are then cut up carefully with the aid of fine scissors and crushed using an ultraturax apparatus. […]
(§7) 8) The protein content in the membrane suspensions is evaluated using a Bradford dosage device (BioRad, acording to the manufacturer's instructions). […]

Molecule | Results, binding test with different rat organ membranes (positive/negative)
PLEPSGG [Example 4, H-PLEPSGG-NH2] | negative
GQDSIEPVPGQK [Example 1, H-GQDSIEPVPGQK-NH2] | negative

target: rat brain membranes; experiment: Binding test with rat brain membranes; conditions: not given
Method: as §1, §2, §3, §4, §5, §6, §7

Molecule | IC50 [nM]
YERNRQAAAANPENSRGK [Example 6, H-YERNRQAAAANPENSRGK-NH2] | 90000
ELGRGPGPPLPERGA [Example 5, H-ELGRGPGPPLPERGA-NH2] | 90000
